Results: ChEMBL document CHEMBL1135270, “New highly active taxoids from 9 beta-dihydrobaccatin-9,10-acetals” (2002)
≈ marks a conversion by molar mass, not a printed value.

Experiments:
PC-6 [1] = test: Growth inhibition of 50% of vincristine-resistant cell line expressing P-glycoprotein (PC-6/VCR) in MTT assay; type: functional; conditions: Homo sapiens
PC-6 [2] = test: Growth inhibition of 50% of human small cell lung cancer (PC-6) cell line in MTT assay; type: functional

Compound | GI50 (PC-6 [1]) | GI50 (PC-6 [2])
CC(=O)O[C@@]12CO[C@@H]1C[C@H](O)[C@@]1(C)[C@H](O)[C@H](O)C3=C(C)[C@@H](OC(=O)[C@H](O)[C@@H](NC(=O)OC(C)(C)C)c4ccco4)C[C@@](O)([C@@H](OC(=O)c4ccccc4)[C@H]21)C3(C)C | 422 ng/mL (≈ 528 nM) | 21 ng/mL (≈ 26.3 nM)
CC(=O)O[C@@]12CO[C@@H]1C[C@H](O)[C@@]1(C)[C@@H]3OC(C)(C)O[C@@H]3C3=C(C)[C@@H](OC(=O)[C@H](O)[C@@H](NC(=O)OC(C)(C)C)c4ccco4)C[C@@](O)([C@@H](OC(=O)c4ccccc4)[C@H]21)C3(C)C | 1.88 ng/mL (≈ 2.24 nM) | 0.331 ng/mL (≈ 0.394 nM)
C=CC1O[C@@H]2C3=C(C)[C@@H](OC(=O)[C@H](O)[C@@H](NC(=O)OC(C)(C)C)c4ccccc4)C[C@@](O)([C@@H](OC(=O)c4ccccc4)[C@@H]4[C@]5(OC(C)=O)CO[C@@H]5C[C@H](O)[C@@]4(C)[C@@H]2O1)C3(C)C (stereo not given in full) | 4.64 ng/mL (≈ 5.47 nM) | 0.365 ng/mL (≈ 0.43 nM)
C=CC1O[C@@H]2C3=C(C)[C@@H](OC(=O)[C@H](O)[C@@H](NC(=O)OC(C)(C)C)c4ccco4)C[C@@](O)([C@@H](OC(=O)c4ccccc4)[C@@H]4[C@]5(OC(C)=O)CO[C@@H]5C[C@H](O)[C@@]4(C)[C@@H]2O1)C3(C)C (stereo not given in full) | 1.27 ng/mL (≈ 1.52 nM) | 0.743 ng/mL (≈ 0.887 nM)
COc1ccc(C2O[C@@H]3C4=C(C)[C@@H](OC(=O)[C@H](O)[C@@H](NC(=O)OC(C)(C)C)c5ccco5)C[C@@](O)([C@@H](OC(=O)c5ccccc5)[C@@H]5[C@]6(OC(C)=O)CO[C@@H]6C[C@H](O)[C@@]5(C)[C@@H]3O2)C4(C)C)cc1 (stereo not given in full) | 9.25 ng/mL (≈ 10.1 nM) | 6.26 ng/mL (≈ 6.82 nM)
